According to patent US20250144056A1, “ANTIMICROBIAL HOST DEFENSE PEPTIDE-INDUCING COMPOSITIONS AND METHODS OF PRODUCTION AND USE THEREOF” (Board of Regents for the Oklahoma Agricultural and …, priority 2022, published 2025):

Experiments:
chicken HDP genes = experiment: RT-qPCR of multiple HDP genes in HTC cells; assay type: cell-based
Experimental: (§1) Culture and stimulation of macrophages. Two different chicken macrophage cell lines, HTC (24) and HD11 (25), were kindly provided by Dr. Narayan C. Rath and Dr. Hyun Lillehoj of USDA-ARS and maintained in RPMI 1640 containing 10% heat-inactivated FBS, 100 U/ml penicillin, and 100 μg/ml streptomycin and subcultured every 3-4 days. After overnight seeding at 1.5×10^6 cells/well in 6-well cell culture plates, cells were treated with different concentrations of each compound for 24 h or with the indicated concentration of each compound for various lengths of time for dose-response and time-course experiments, respectively. […]
(§2) Total RNA extraction and gene expression analysis. […] Gene expression was performed using reverse transcription-quantitative PCR (RT-qPCR) as previously described (27-29). […] The cDNA was then diluted 10-fold with RNase-free water prior to real-time PCR using QuantiTect SYBR® Green PCR Kit (Qiagen, Valencia, CA) in 10-μl reactions using primers specific for HDP, barrier function, and inflammatory cytokine genes as described (27, 29, 30). […] The fold changes in gene expression in the cells treated with individual compounds or in combinations were calculated relative to the cells treated with an equal volume of RPMI 1640 or DMSO using the ΔΔCt method (31).

AvBD2 = experiment: RT-qPCR of AvBD2 in HTC cells; assay type: cell-based, chicken; settings: BIX01294 with 2 mM butyrate, 24 h (FIG. 5)
Experimental: as §1, §2

AvBD10 = experiment: RT-qPCR of AvBD10 in HTC cells; assay type: cell-based, chicken; settings: 2 mM butyrate and at least one concentration of BIX01294, 24 h (FIG. 5)
Experimental: as §1, §2

AvBD14 = experiment: RT-qPCR of AvBD14 in HTC cells; assay type: cell-based, chicken; settings: 2 mM butyrate and at least one concentration of BIX01294, 24 h (FIG. 5)
Experimental: as §1, §2

IL-1β = experiment: RT-qPCR of IL-1β in HTC cells with or without LPS; assay type: cell-based, chicken
Experimental: Culture and stimulation of macrophages. Two different chicken macrophage cell lines, HTC (24) and HD11 (25), were kindly provided by Dr. Narayan C. Rath and Dr. Hyun Lillehoj of USDA-ARS and maintained in RPMI 1640 containing 10% heat-inactivated FBS, 100 U/ml penicillin, and 100 μg/ml streptomycin and subcultured every 3-4 days. After overnight seeding at 1.5×10^6 cells/well in 6-well cell culture plates, cells were treated with different concentrations of each compound for 24 h or with the indicated concentration of each compound for various lengths of time for dose-response and time-course experiments, respectively. To study the synergy between HMTi/DNMTi and HDACi, different concentrations of an HMTi or DNMTi were added to the cells in the presence or absence of an HDACi for 24 h, followed by RNA isolation and HDP gene expression analysis as described below. HTC cells were also stimulated with butyrate, BIX01294, or their combination for 24 h, followed by 3-h stimulation with 10 ng/ml LPS and subsequent expression analysis.
Total RNA extraction and gene expression analysis. Total RNA was extracted using RNAzol (Molecular Biology Research Center, Cincinnati, OH) according to the manufacturer's protocol. Gene expression was performed using reverse transcription-quantitative PCR (RT-qPCR) as previously described (27-29). Reverse transcription was performed with 300 ng of total RNA and Maxima® First Strand cDNA Synthesis Kit (ThermoFisher Scientific, Pittsburgh, PA). The cDNA was then diluted 10-fold with RNase-free water prior to real-time PCR using QuantiTect SYBR® Green PCR Kit (Qiagen, Valencia, CA) in 10-μl reactions using primers specific for HDP, barrier function, and inflammatory cytokine genes as described (27, 29, 30). PCR was run in CFX Connect Real-Time PCR System (Bio-Rad, Hercules, CA) using the following program: 95° C. for 10 min, followed by 40 cycles of 94° C. for 15 sec, 55° C. for 20 sec, and 72° C. for 30 sec. The specificity of PCR reactions was confirmed by the melting curve analysis. The glyceraldehyde-3-phosphate dehydrogenase (GAPDH) gene was used as the reference for data normalization. The fold changes in gene expression in the cells treated with individual compounds or in combinations were calculated relative to the cells treated with an equal volume of RPMI 1640 or DMSO using the ΔΔCt method (31).

COc1cc2nc(N3CCCN(C)CC3)nc(NC3CCN(Cc4ccccc4)CC3)c2cc1OC [BIX01294]
induction of the HDP genes detectable in HTC cells, combination with butyrate (chicken HDP genes; BIX01294 with 2 mM butyrate, 24 h (FIG. 5)): all were synergistically induced | induction of most other HDP genes, combination with HDACi (chicken HDP genes; BIX01294 with any of the three HDACi (vorinostat, butyrate, mocetinostat), 24 h (FIG. 7, Panel B)): synergistically induced | AvBD2 upregulation, combination with butyrate (AvBD2): 2- to 3 fold | AvBD10 induction, combination with butyrate (AvBD10): greater than 100 fold | AvBD14 induction, combination with butyrate (AvBD14): greater than 100 fold | effect on LPS-induced IL-1B expression, combination with butyrate (IL-1β; 5 μM BIX01294 + 2 mM butyrate 24 h, then 10 ng/ml LPS 3 h (FIG. 8, Panel D)): significant reduction | IL-1β synthesis, combination with butyrate (IL-1β; 5 μM BIX01294 + 2 mM butyrate, without LPS (FIG. 8, Panel D)): tended to have a synergistic effect | effect on LPS-induced IL-1β expression (IL-1β; compound alone 24 h, then 10 ng/ml LPS 3 h (FIG. 8, Panel D)): opposite effect | activity in inducing gene expression of IL-1β (IL-1β; compound alone (2 mM butyrate or 5 μM BIX01294), without LPS (FIG. 8, Panel D)): no or weak activity
